Results published in ChEMBL document CHEMBL1139695, “Development of pyrimidine-based inhibitors of Janus tyrosine kinase 3” (Bioorg Med Chem Lett, 2006).
pIC50: −log10 of the molar value.

Columns and labels:
TF-1 [1] = assay: cells; conditions: Homo sapiens
Description: Inhibition of IL4-induced proliferation of TF1 cells

TF-1 [2] = assay: cells; conditions: Homo sapiens; remark: listed apart in the source
Description: Inhibition of IL3-induced proliferation of TF1 cells

Compound: C[C@H](Nc1ccnc(-n2cnc3ccncc32)n1)c1ccc(F)cc1
- pIC50 (TF-1 [1]): 6.47
- pIC50 (TF-1 [2]): 6.20
